Test results as given in patent US20060234987A1, “Neuroprotective benzo 1 3 oxathiol 2 ones” (priority 2003, published 2006).
Entries after “also recorded” stand apart in the source; their conditions may differ.

How the values were obtained:
SCG ex-plant = test: Neurite out-growth in SCG ex-plants with minimal NGF; format: cell-based; details: 30 μM compound, 1 ng/mL NGF, after 2 days
Experimental: FIG. 3A is an SCG ex-plant cultured in the absence of NGF. No neurite extensions are visible. FIG. 3B. is an SCG ex-plant cultured in the presence of compound 23 (30 μM).
In order to determine if these compounds were capable of augmenting NGF signaling in vitro, compound was added to cultured SCG neurons in the presence of ‘minimal’ quantities of NGF. […] Similar results were obtained using NGF differentiated PC12 cells (not shown).

LAR = target: T1, LAR (Homo sapiens, UniProt P10586); test: LAR Assay; format: biochemical; details: Table 6
T1 construct: purchased BIOMOL Research Laboratories, Inc
Experimental: C) LAR Assay: Inhibition of the phosphatase LAR was performed according to reported procedures (Cho, H. Biochemistry 1991, 30, 6210; 1992, 31, 133; Cho, H. Prot. Sci., 1993, 2, 977). LAR was purchased from BIOMOL Research Laboratories, Inc.

PP1 = PP1 Assay; format: biochemical; details: Table 6
Experimental: E) PP1 Assay: Inhibition of the phosphatase PP1 was performed according to reported procedures (Nat. Biotechnol., 2000, 18, 847).

SHP2 = target: T2, SHP2 (Homo sapiens, UniProt Q06124); test: Phosphatase profile: SHP2 inhibition (DIFMUP fluorescence); format: biochemical; details: Table 6
T2 construct: made in house; host or cells: adenovirus vector
T2 sequence (Q06124 1-593): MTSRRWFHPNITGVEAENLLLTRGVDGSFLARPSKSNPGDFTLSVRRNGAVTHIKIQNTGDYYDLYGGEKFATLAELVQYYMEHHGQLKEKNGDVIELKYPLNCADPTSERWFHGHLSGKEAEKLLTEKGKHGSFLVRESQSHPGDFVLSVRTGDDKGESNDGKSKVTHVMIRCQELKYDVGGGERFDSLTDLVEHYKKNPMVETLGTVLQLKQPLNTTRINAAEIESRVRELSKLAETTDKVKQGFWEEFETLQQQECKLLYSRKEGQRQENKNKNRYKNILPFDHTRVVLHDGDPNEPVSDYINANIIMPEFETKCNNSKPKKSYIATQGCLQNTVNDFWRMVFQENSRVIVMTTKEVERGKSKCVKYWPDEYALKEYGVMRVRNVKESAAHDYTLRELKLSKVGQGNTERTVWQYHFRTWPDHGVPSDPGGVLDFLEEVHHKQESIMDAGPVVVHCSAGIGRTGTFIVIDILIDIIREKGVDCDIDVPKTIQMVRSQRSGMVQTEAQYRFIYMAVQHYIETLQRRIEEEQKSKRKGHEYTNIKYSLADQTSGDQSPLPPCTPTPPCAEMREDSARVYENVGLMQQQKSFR
Experimental: A) SHP1 and SHP2: SHP1 and SHP2 adenovirus vectors were prepared. SHP1 and SHP2 were independently over expressed, isolated and purified using FPLC. Enzyme was diluted to 1000-1400 FU/min. Enzyme (45 μL) was uniformLy plated in 96 well plates and treated with serial dilutions of compound (2 μL in DMSO). Compound and enzyme are allowed to incubate for 30 minutes at RT before the addition of DIFMUP (100 μM). The solutions are allowed to incubate at RT for 10 minutes prior to reading the fluorescence, to provide IC50 curves using LSW Data Analysis Tool Box (MDL).

TrkA = TrkA Phosphorylation Assay in PC12 cells; format: cell-based; details: compound 10-50 μM, NGF 10 ng/mL, compared with NGF 50 ng/mL, Western blot/autoradiograph
Experimental: Lane PC12 624 cells not treated with NGF; Lane B—PC12 624 cells treated with NGF (50 ng/mL) for 24 hrs; Lane C—PC12 624 cells treated with NGF (50 ng/mL) for 30 minutes; Lane D—PC12 624 cells treated with NGF (10 ng/mL) and compound 23 (50 μM); Lane E—PC12 624 cells treated with NGF (10 ng/mL) and compound 23 (40 μM), Lane F—PC12 624 cells treated with NGF (10 ng/mL) and compound 23 (30 μM); Lane G—PC12 624 cells treated with NGF (10 ng/mL) and compound 23 (20 μM); Lane H—PC12 624 cells treated with a NGF (10 ng/mL) and compound 23 (10 μM); Lane I—PC12 624 cells treated with NGF (50 ng/mL) for 24 hours, and re-treated with NGF (50 ng/mL) for 30 minutes; Lane J—PC12 624 cells treated with NGF (50 ng/mL) for 30 minutes.
TrkA phosphorylation may be monitored using Trk anti-bodies and Western blot analysis. […] In PC12 expressing cells, this effect is most robust at 30 minutes when 50 ng/mL of NGF is used.
TrkA Phosphorylation Assay: Culture media was removed from cultured PC12 cells (106-107, 50% confluent) and media containing NGF (1 to 50 ng/mL), 0.1% BSA, and compound (1 to 30 μM) was added. The cells were incubated for 1 to 60 minutes, the media was removed and the cells washed twice with ice cold TBS solution. […]

T1 sequence (P10586 30-1907, species assumed): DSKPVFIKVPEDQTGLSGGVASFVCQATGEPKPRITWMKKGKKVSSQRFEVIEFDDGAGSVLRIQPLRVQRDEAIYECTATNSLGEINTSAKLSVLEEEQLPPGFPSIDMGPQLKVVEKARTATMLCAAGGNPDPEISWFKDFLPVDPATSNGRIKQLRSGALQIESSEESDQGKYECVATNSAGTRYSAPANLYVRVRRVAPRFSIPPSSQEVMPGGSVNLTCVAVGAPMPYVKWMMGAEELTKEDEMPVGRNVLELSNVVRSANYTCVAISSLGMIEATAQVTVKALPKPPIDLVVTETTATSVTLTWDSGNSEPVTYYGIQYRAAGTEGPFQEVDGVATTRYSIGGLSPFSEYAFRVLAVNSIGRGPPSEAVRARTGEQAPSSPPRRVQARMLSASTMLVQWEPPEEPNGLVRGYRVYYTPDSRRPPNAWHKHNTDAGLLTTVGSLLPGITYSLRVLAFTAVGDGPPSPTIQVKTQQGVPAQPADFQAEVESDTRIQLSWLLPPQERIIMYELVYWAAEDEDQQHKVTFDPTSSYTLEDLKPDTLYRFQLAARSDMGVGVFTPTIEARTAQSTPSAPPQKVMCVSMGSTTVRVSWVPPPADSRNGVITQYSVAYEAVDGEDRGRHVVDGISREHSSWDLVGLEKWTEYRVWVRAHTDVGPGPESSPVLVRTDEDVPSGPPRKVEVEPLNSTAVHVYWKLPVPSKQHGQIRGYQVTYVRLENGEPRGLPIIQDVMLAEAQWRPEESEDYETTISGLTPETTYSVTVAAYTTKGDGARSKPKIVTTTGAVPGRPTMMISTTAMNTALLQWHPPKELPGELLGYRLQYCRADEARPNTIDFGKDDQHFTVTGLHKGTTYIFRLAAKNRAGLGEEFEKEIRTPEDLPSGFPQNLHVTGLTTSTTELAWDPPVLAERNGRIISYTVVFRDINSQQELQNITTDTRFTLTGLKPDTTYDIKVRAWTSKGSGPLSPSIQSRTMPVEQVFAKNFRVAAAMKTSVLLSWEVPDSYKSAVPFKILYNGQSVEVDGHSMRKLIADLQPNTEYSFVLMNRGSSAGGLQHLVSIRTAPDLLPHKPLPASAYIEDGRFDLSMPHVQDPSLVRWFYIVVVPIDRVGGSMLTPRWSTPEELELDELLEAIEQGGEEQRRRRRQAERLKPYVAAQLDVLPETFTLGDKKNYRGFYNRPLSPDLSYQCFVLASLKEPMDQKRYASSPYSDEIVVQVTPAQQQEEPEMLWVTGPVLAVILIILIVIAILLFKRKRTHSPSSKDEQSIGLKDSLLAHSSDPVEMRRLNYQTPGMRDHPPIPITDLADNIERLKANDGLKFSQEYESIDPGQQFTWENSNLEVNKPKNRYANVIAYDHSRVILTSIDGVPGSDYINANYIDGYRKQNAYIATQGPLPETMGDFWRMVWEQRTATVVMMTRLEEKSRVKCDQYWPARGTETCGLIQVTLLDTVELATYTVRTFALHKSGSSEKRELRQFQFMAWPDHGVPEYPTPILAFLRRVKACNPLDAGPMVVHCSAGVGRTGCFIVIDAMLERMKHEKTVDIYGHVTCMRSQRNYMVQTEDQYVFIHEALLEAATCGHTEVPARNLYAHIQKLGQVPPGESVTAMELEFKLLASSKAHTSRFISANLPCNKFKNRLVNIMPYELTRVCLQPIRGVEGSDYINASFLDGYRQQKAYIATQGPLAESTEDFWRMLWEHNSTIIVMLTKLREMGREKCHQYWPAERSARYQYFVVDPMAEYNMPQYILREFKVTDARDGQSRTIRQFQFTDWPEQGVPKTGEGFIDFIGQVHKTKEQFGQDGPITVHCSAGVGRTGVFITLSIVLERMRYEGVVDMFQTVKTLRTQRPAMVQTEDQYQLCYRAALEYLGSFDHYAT

Row | IC50 (LAR) | PP1 IC50 (PP1) | IC50 (SHP2) | LAR IC50 (LAR) | SMILES | neurite outgrowth (SCG ex-plant) | TrkA phosphorylation (TrkA)
1 | > 100 µM | no inh. | 16.5 µM | – | O=c1oc2c(Sc3ccc4ccccc4c3)cc(O)cc2s1 [Compound 23, 5-Hydroxy-7-((2-naphthy)sulfanyl)benzo[1,3]oxathiol-2-one] | Numerous ordered neurites are present; also recorded: visibly comparable to that observed under ‘optimal’ NGF concentrations | maintains the level of TrkA phosphorylation even after 24 hours; also recorded: Comparable levels of TrkA phosphorylation
2 | – | no inh. | 18.4 µM | no inh. | O=c1oc2c(Sc3ccc4ccccc4c3)cc(O)c(Sc3ccc4ccccc4c3)c2s1 [Compound 30, 4,7-Bis-((2-naphthyl)sulfanyl)-5-hydroxybenzo[1,3]oxathiol-2-one] | – | –
